{"source": "patent US8688387B2", "about": "“Method for the determination of intra- and intermolecular interactions in aqueous solution” (Bayer CropScience AG, priority 2006, dated 2014)", "key": {"helix [1]": {"test_system": "helix", "assay": "Destabilization of a helix in which thymidin is replaced", "conditions": "corresponding to the 16 kJ/mol destabilization", "source_text": "The importance of a complete H-bond network in nucleotide recognition has been investigated. Molecular recognition usually involves several H-bonds. The influence of unsatisfied interfacial H-bond functions can be seen in the destabilization of a helix in which thymidin is replaced by difluortoluoldesoxynucleosid. The experiments have shown that these helices exist in aqueous solution but are destabilized by 16 kJ/mol compared to the helices with thymidin (Moran et al., J. Am. Chem. Soc. 1997, 119: 2056-2057). The authors conclude that the specificity of base pair recognition may not be due to H-bonding but to space filling since the modified base is incorporated into the double helix even though the H-bond cannot be made. […] This value agrees well with the mismatched pairing observed for the incorporation of nucleotides into DNA by polymerase enzymes (1 in 10^3-10^5) (Loeb and Kunkel, Annu. Rev. Biochem. 1982: 52, 429) and the preference of correct tRNA compared to near cognate tRNA in the codon:anticodon recognition (1 in 10^−3.5) (Thompson and Karim, Proc. Natl. Acad. Sc. U.S.A. 1982, 79: 4922-26)."}, "helix [2]": {"test_system": "helix", "conditions": "aqueous solution, compared to the helices with thymidin; cited from earlier work"}}}
{"smiles": "Cc1cc([C@H]2C[C@H](O)[C@@H](CO)O2)c(F)cc1F", "note": "[difluortoluoldesoxynucleosid]", "values": [{"measurement": "reduced affinity", "setting": "helix [1]", "value": "1000-10000 times"}, {"measurement": "destabilization of helices", "setting": "helix [2]", "value": 3.82, "unit": "kcal/mol"}]}
